Assay results: patent US7557116B2, “Substance which exhibits antiviral and antibacterial activity and is based on derivatives of 2,8-dithioxo-1H-pyrano[2,3d 6,5-d′]dipyrimidyne and 10-aza-analogue thereof” (priority 2003, dated 2009)
Read-outs that look alike come from different tables or passages of the source. Marks after values point to notes of the source that are not given here.

Experiments:
Format in all cases: cell-based
[1] = tested on: Influenza virus B
[2] = tested on: Chlamydia trachomatis D323; assay: Protection of cell culture from Chlamydia trachomatis (immunofluorescence, cytoplasmatic inclusions)
Description: The antiviral activity of the claimed compounds were also all tested against the Chlemydia trachomatis. The effects of the claimed compounds on the Chlamydia trachomatis are charted in TABLE 4. A relative strain of Chlamydia trachomatis D323 was used to test the claimed compounds. The strain, derived from a patient with Chlamydia urethritis, comprised a morphology and a physiological activity characteristic of and representative of that type. An infection dose of Chlamydia having a concentration of 1/10^6 cells/ml was introduced into a cell culture. Immunofluorescence (MicroTrack Chlamydia trachomatis Direct Specimen Test) was conducted to determine the significance of the chlamydial cytoplasmatic inclusions (CPI). A CylaMonoScreen was conducted to obtain the chlamydia antigens. The monolayer state and the number of cells with CPI were compared to the control to determine the effects the claimed compounds have on the chlamydia. The number of unchanged cells in 100 visual fields were counted utilizing a special net on a microscopic eyepiece.

[3] = tested on: Influenza virus A
[4] = tested on: Herpes virus of type I; assay: Protection of Vero cells from Herpes virus of type I; conditions: for Number of cells: number of cells in 100 fields
[5] = tested on: Human Immunodeficiency Virus Type 1; assay: Anti-HIV activity: protection of MT4 T-lymphoblastoid cells (IFA)
Procedure: (§1) Activity against the Human immunodeficiency Virus (HIV) was also determined and, more specifically, the compounds antiviral effectiveness in protecting the T-lymphoblastoid cells MT4 from being infected by the virus-containing liquid of HTHIV27 cultures. The cells infected by the virus were analyzed according to the following methods: (1) An indirect immunofluorescence (IFA) with a polyclonal anti-serum was received from an HIV Infected human (the antibody titer in the IFA was 1:1000000) and, (2) A competitive IFA was utilized with monoclonal antibodies (MonAb) to p24 HIV and a polyclonal substrate. A solution of 1:540 was used in the tests. Azidothymidin (AZT) was used as the control.
The results documented in the table shown in TABLE 6 evidence that the compounds tested inhibit the reproduction of the Human Immunodeficiency Virus Type 1.

[6] = tested on: Human Immunodeficiency Virus; assay: Anti-HIV activity alone and in combination with azidothymidin in MT4 cells
Procedure: as §1, with “[…] The methods utilized to analyze the compounds effectiveness were the same” for “Azidothymidin (AZT) was used”, “foregoing methods.” for “control.”

[7] = Influenza virus B, 72 hours at 33-34 C, ineffective when IN less than 1.0
[8] = Influenza virus A, 48 hours at 33-34 C, ineffective when IN less than 1.0

Row | Compound | Index of neutralization [1, 7] | Percentage of cells' defense from C. trachomatis ([2]; compound 30 mg/l) [%] | Percentage of cells' defense from C. trachomatis ([2]; compound 100 mg/l) [%] | Index of neutralization [3, 8] | percentage of protection of cells from virus ([4]; compound 10 mg/l) | percentage of protection of cells from virus ([4]; compound 50 mg/l) [%] | percentage of protection of cells from virus ([4]; compound 100 mg/l) [%] | Number of cells ([4]; compound 10 mg/l) | Number of cells ([4]; compound 50 mg/l) | Number of cells ([4]; compound 100 mg/l) | Level of inhibition of virus reproduction ([5]; 5 mg/l) [%] | Level of inhibition of virus reproduction ([5]; 50 mg/l) [%] | Level of inhibition of virus reproduction ([5]; 100 mg/l) [%] | Level of inhibition of virus reproduction ([6]; 0.05 mg/l) [%] | Level of inhibition of virus reproduction ([6]; 5.0 mg/l) [%] | Index of neutralization [1] | Index of neutralization [3]
1 | O=[N+]([O-])c1ccc(C2c3c(Cl)nc(=S)[nH]c3Oc3[nH]c(=S)nc(Cl)c32)cc1 [Iia, 4,6-dichlorine-5-(4-nitrophenyl)-5,9-dihydro-1H-pyrano[2,3-d: 6,5-d′]dipyrimidine-2,8-dition] | 1.5 | 70 | 90 | 1.5 |  |  |  |  |  |  |  |  |  |  |  |  | 
2 | Nc1nc(=S)[nH]c2c1C(c1ccc([N+](=O)[O-])cc1)c1c(Cl)nc(=S)[nH]c1O2 (stereo not drawn) [IV, 4-chlorine-6-amino-5-(4-dinytrophenyl)-5,9-dihydro-1H-pyrano[2,3-d: 6,5-d′]dipyrimidine-2,8-dition] | 1.5 | 50 | 80 | 2.0 | 50% | 70 | 80 | 6000 | 8400 | 9600 |  |  |  |  |  |  | 
3 | Nc1nc(=S)[nH]c2c1C(c1ccc([N+](=O)[O-])cc1)c1c(N)nc(=S)[nH]c1O2 [V, 4,6-diamino-5-(4-nytrophenyl)-5,9-dihydro-1H-pyrano[2,3-d: 6,5-d′]dipyrimidine-2,8-dition] | 1.5 | 50 | 80 | 1.0 | 60% | 80 | 90 | 7200 | 9600 | 10800 | 90 | 100 | 100 |  |  |  | 
4 | Cc1cn([C@H]2C[C@H](N=[N+]=[N-])[C@@H](CO)O2)c(=O)[nH]c1=O [AZT, Azidothymidin, reference compound] |  |  |  |  |  |  |  |  |  |  | 100 | 100 | 100 | 50 | 100 |  | 
5 | O=[N+]([O-])c1ccc(C2c3c(O)nc(=S)[nH]c3Oc3[nH]c(=S)nc(O)c32)cc1 [XII] |  | 40 | 60 |  | 10% | 30 | 50 | 1200 | 3600 | 6000 |  |  |  |  |  |  | 
6 | CNc1nc(=S)[nH]c2c1C(c1ccc([N+](=O)[O-])cc1)c1c(O)nc(=S)[nH]c1O2 (stereo not drawn) [VIII, 4-methylamino-6-hydroxi-5-(4-nitrophenyl)-5,9-dihydro-1H-pyrano[2,3d: 6,5-d′]dipyrimidine-2,8-dition] | 1.5 | 70 | 90 | 2.0 |  |  |  |  |  |  |  |  |  |  |  |  | 
7 | Nc1nc(=S)[nH]c2c1C(c1ccc([N+](=O)[O-])cc1)c1c(N)nc(=S)[nH]c1N2 [VI, 4,5-diamino-10-(4-nytrophenyl)-9,10-dihydro-1H,8H-1,3,6,8,9-pentaazaantrecen-2,7dition] | 1.5 | 50 | 80 | 20 | 70% | 90 | 100 | 8400 | 10800 | 12000 |  |  |  |  |  |  | 
8 | O=[N+]([O-])c1ccc(C2c3c(O)nc(=S)[nH]c3Oc3[nH]c(=S)nc(Sc4nc(O)cc(O)n4)c32)cc1 (stereo not drawn) [X, 4-(4,6-dihydroxipirimidine-2sulfanil)-6-hydroxi-5-(4-nytrophenyl)-5,9-dihydro-1H-pyrano [2,3-d: 6,5-d′]dipyrimidine-2,8-dition] | 1.0 | 60 | 100 | 1.5 | 60% | 80 | 90 | 7200 | 9600 | 10800 |  |  |  |  |  |  | 
9 | 4-chlorine-6-hydroxi-5-aryl-5,9-dihydro-1H-pyrano[2,3d: 6,5-d′]dipyrimidine-2-8-dition [Iib] |  |  |  |  | 70% | 90 | 100 | 8400 | 10800 | 12000 |  |  |  |  |  |  | 
10 | CN(C)c1nc(=S)[nH]c2c1C(c1ccc([N+](=O)[O-])cc1)c1c(O)nc(=S)[nH]c1O2 (stereo not drawn) [IX, 4-dimethylamine-6-hydroxi-5-(4-nitrophenyl)-5,9-dihydro-1H-pyrano[2,3-d: 6,5-d′]dipyrimidine-2,8-dition] |  | 50 | 80 |  | 50% | 70 | 80 | 6000 | 8400 | 9600 |  |  |  |  |  | 1.5 | 2.0
11 | O=[N+]([O-])c1ccc(C2c3cnc(=S)[nH]c3Oc3[nH]c(=S)nc(O)c32)cc1 (stereo not drawn) [XI, 6-hydroxi-5-4-(4-nitrophenyl)-5,9-dihydro-1H-pyrano[2,3-d: 6,5-d′]dipyrimidine-2,8-dition] | 1.5 | 50 | 90 | 1.5 | 50% | 70 | 80 | 6000 | 8400 | 9600 |  |  |  |  |  |  | 
12 | Nc1nc2c(ncn2COCCO)c(=O)[nH]1 [Acyclovir, reference compound] |  |  |  |  | (80%)**** |  |  | 9600*** |  |  |  |  |  |  |  |  | 
13 | Nc1nc(=S)[nH]c2c1C(c1ccc([N+](=O)[O-])cc1)c1c(O)nc(=S)[nH]c1O2 (stereo not drawn) [III, 4-amino-6-hydroxi-5-(4-nitrophenyl)-5,9-dihydro-1H-pyrano[2,3-d: 6,5-d′]dipyrimidine-2,8-dition] | 1.0 | 70 | 100 | 0.5 | 70% | 80 | 100 | 8400 | 9600 | 12000 | 70 | 90 | 100 |  |  |  | 
14 | Oc1nc(=S)[nH]c2c1C(c1ccccc1)c1c(Cl)nc(=S)[nH]c1O2 (stereo not drawn) [Ia, 4-chlorine-6-hydroxi-5-aryl-5,9-dihydro-1H-pyrano[2,3d: 6,5-d′]dipyrimidine-2,8-dition] |  |  |  |  | 60% | 80 | 90 | 7200 | 9600 | 10800 |  |  |  |  |  |  | 
